{
  "source": "patent US20120040974A1",
  "about": "“MIF MODULATORS” (YALE UNIVERSITY, priority 2008, published 2012)",
  "key": {"[1]": {"target": "T1, Human MIF tautomerase activity (HPP) (Homo sapiens, UniProt P14174)", "T1 construct": "made in house", "T1 sequence (P14174 2-115 limits assumed)": "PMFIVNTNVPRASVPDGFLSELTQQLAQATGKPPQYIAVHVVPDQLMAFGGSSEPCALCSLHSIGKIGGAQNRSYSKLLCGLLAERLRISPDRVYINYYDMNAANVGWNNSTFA", "assay": "HPP tautomerase assay", "assay_type": "biochemical", "conditions": "for Emax: read-out: HPP Max. Inhib.", "experimental": "The HPP assay used was adapted to the microtiter plate format. […] Dilutions of the enzyme were prepared in 50 mM sodium phosphate buffer, 1 mM EDTA, pH 6.5. HPP was obtained from Aldrich. A stock solution of 60 mM HPP in ethanol is prepared and kept for maximally 4 hours on ice. The working solution (600 μM) of the substrate was prepared by diluting an aliquot of the stock solution with 50 mM sodium phosphate buffer, 1 mM EDTA, pH 6.5. […] Inhibitor and enzyme solutions were pipetted manually using an Eppendorf 12-channel pipette. Addition of substrate to start the reaction was performed with an Igel 96 pipetting station (OpalJena, Jena, Germany), which allows simultaneous addition of fluid to all 96 wells of the plates. Optical density (OD) was determined using a SPECTRAmax 250 reader (Molecular Devices). The reader was operated with the SoftmaxPro 2.6.1 software. Assay: Three wells of the microtiter plates were filled with buffer only, to allow for blanking. […] The last step was performed using the 96-channel pipetting device. The plate was then immediately (i.e. within a few seconds) transferred manually to the SPECTRAmax 250 reader and the optical density was determined (310 nm). From the data obtained, IC50 values were calculated using Excel® and XLfit® software."}, "[2]": {"target": "T2, MIF-CD74 binding (biotinylated recombinant human MIF / immobilized CD74 ectodomain) (Homo sapiens, UniProt P14174)", "T2 sequence (P14174 2-115 limits assumed)": "T1 sequence (P14174 2-115 limits assumed)", "assay": "MIF-CD74 binding (capture) assay", "conditions": "for IC50: Table 1, benzooxazolones B, inhibition of MIF-CD74 binding; for Capture % Max. Inhib.: Table 3, benzothiazolones, capture assay", "experimental": "This allows measurement of the inhibition or enhancement of the binding of MIF to its receptor induced by an addend.\nIncubate at 4° C. overnight. Wash the plate 4 times with 250 μl/well TTBS and add 100 μl/well of superblock (Pierce, Ill.). Incubate at 4° C. overnight. Remove the superblock and add mixture of compound and biotin-labeled recombinant human MIF incubated at 4° C. overnight. (Each compound was pre-incubated at various concentrations with 2 ng/μl 0.2 μM biotin-MIF for 2 hours at room temperature in the dark). After washing the plate 4 times with 250 μl/well TTBS, 60 μl/well of Strepavidin-AP (R&D Systems) was added and incubated for 1 hr at room temperature in the dark. Wells were then washed as before and 60 μl/well of PNPP (Sigma) was added, allowing the color to develop in the dark at room temperature and then read at OD405 nm."}, "ovarian cancer cell line": {"system": "ovarian cancer cell line", "assay": "Growth inhibition of an ovarian cancer cell line", "assay_type": "cell-based", "source_text": "KSP inhibitor ARRY-520 is used as a substitute for Paclitaxel in Type I ovarian cancer cells. J Transl Med. 7:63."}, "[3]": {"system": "MIF-dependent ERK1/2 phosphorylation", "assay": "MIF-dependent signal transduction in cells (ERK1/2 phosphorylation)", "assay_type": "cell-based", "conditions": "compared to isoxazoline-1", "description": "Two additional assays were performed on compounds according to the present invention. In the first, MIF-dependent signal transduction in cells as evidenced by a reduction in ERK1/2 phosphorylation and its inhibitory action is compared to the known small molecule MIF antagonist, isoxazoline-1 following the assay reported in Leng L., Metz C, Fang Y, Xu J, Donnelly S, Baugh J, Delonery T, Chen Y, Mitchell R A, and Bucala R. 2003. MIF Signal Transduction Initiated by Binding to CD74. J Exp Med 197, 1467-1476."}, "[4]": {"conditions": "Table 1, MIF tautomerase activity, HPP substrate"}},
  "note": "Like-named read-outs stand apart in the source and are kept apart here.",
  "data": [
    {"smiles": "Cc1ccc2oc(=O)n(Cc3ccccc3)c2c1", "note": "[Compound 1]", "values": [
      {"measurement": "IC50", "setting": "[1]; [4]", "result": 0.5, "unit": "µM"}
    ]},
    {"smiles": "COc1cccc(Cn2c(=O)oc3ccc(OC)cc32)c1", "note": "[Compound 3, 5-methoxy-3-(3-methoxy-benzyl)-3H-benzooxazol-2-one]", "values": [
      {"measurement": "IC50", "setting": "[2]", "result": 200, "unit": "µM"}
    ]},
    {"smiles": "COc1cccc(Cn2c(=O)oc3ccc(CO)cc32)c1", "note": "[Compound 4, 5-hydroxymethyl-3-(3-methoxy-benzyl)-3H-benzooxazol-2-one]", "values": [
      {"measurement": "IC50", "setting": "[2]", "result": 500, "unit": "µM"}
    ]},
    {"smiles": "Ic1cc(-c2ccccc2)ncn1", "note": "[Compound 4-IPP, 4-iodo-6-phenylpyrimidine, reference compound]", "values": [
      {"measurement": "activity in the capture assay (MIF-CD74 binding), in words", "setting": "[2]", "result": "inactive"},
      {"measurement": "IC50", "setting": "[2]", "result": "> 10000", "unit": "µM"}
    ]},
    {"smiles": "COc1cccc(Cn2c(=O)oc3ccc(C)cc32)c1", "note": "[Compound 5]", "values": [
      {"measurement": "IC50", "setting": "[2]", "result": 300, "unit": "µM"}
    ]},
    {"smiles": "O=c1oc2ccc(F)cc2n1Cc1ccccc1", "note": "[Compound 8]", "values": [
      {"measurement": "IC50", "setting": "[1]; [4]", "result": 1, "unit": "µM"}
    ]},
    {"smiles": "COc1ccccc1Cn1c(=O)oc2ccc(F)cc21", "note": "[Compound 10]", "values": [
      {"measurement": "Emax", "setting": "[1]; Table 1, maximal inhibition of HPP tautomerase activity", "result": 17, "unit": "%"}
    ]},
    {"smiles": "O=c1oc2cc(O)ccc2n1Cc1ccccc1", "note": "[Compound 14]", "values": [
      {"measurement": "IC50", "setting": "[2]", "result": "> 1000", "unit": "µM"}
    ]},
    {"smiles": "c1ccc(Cn2c(-c3cscn3)nc3ccccc32)cc1", "note": "[Compound 17, 4-(1-benzyl-1H-benzo[d]imidazol-2-yl)thiazole]", "values": [
      {"measurement": "Emax", "setting": "[1]; Table 2, other series", "result": 40, "unit": "%"}
    ]},
    {"smiles": "N#Cc1nc2ccccc2n1Cc1ccccc1", "note": "[Compound 18, 1-Benzyl-1H-benzoimidazole-2-carbonitrile]", "values": [
      {"measurement": "Emax", "setting": "[1]; Table 2, other series", "result": 36, "unit": "%"}
    ]},
    {"smiles": "O=C(c1cc2ccccc2o1)c1cc2ccccc2o1", "note": "[Compound 20, bisbenzofuran-2-yl methanone]", "values": [
      {"measurement": "IC50", "setting": "[1]; Table 2, other series", "result": 510, "unit": "µM"}
    ]},
    {"smiles": "O=c1c2ccc(F)cc2sn1-c1ccc(Cl)cc1", "note": "[Compound 25]", "values": [
      {"measurement": "activity in the capture assay (MIF-CD74 binding), in words", "setting": "[2]", "result": "agonist behavior"}
    ]},
    {"smiles": "O=c1c2ccc(F)cc2sn1-c1cccc(CO)c1", "note": "[Compound 29]", "values": [
      {"measurement": "IC50", "setting": "[1]; Table 3, benzothiazolones", "result": 4.8, "unit": "µM"},
      {"measurement": "Capture % Max. Inhib.", "setting": "[2]", "result": 8, "unit": "%"}
    ]},
    {"smiles": "O=c1c2cc(F)ccc2sn1-c1ccc(Cl)cc1", "note": "[Compound 30]", "values": [
      {"measurement": "IC50", "setting": "[1]; Table 3, benzothiazolones", "result": 2.8, "unit": "µM"},
      {"measurement": "Capture % Max. Inhib.", "setting": "[2]", "result": 7, "unit": "%"}
    ]},
    {"smiles": "COc1ccccc1-n1sc2ccc(Cl)cc2c1=O", "note": "[Compound 31]", "values": [
      {"measurement": "Capture % Max. Inhib.", "setting": "[2]", "result": 7, "unit": "%"}
    ]},
    {"smiles": "O=c1c2cc(F)ccc2sn1-c1cccc(O)c1", "note": "[Compound 32]", "values": [
      {"measurement": "Capture % Max. Inhib.", "setting": "[2]", "result": 13, "unit": "%"}
    ]},
    {"smiles": "CC(=O)OCc1cccc(-n2sc3cc(F)ccc3c2=O)c1", "note": "[Compound 33]", "values": [
      {"measurement": "Capture % Max. Inhib.", "setting": "[2]", "result": 12, "unit": "%"}
    ]},
    {"smiles": "O=c1c2cc([N+](=O)[O-])ccc2sn1-c1ccc(Cl)cc1", "note": "[Compound 34]", "values": [
      {"measurement": "Capture % Max. Inhib.", "setting": "[2]", "result": 11, "unit": "%"}
    ]},
    {"smiles": "O=c1c2cc(C(F)(F)F)ccc2sn1-c1ccc(Cl)cc1", "note": "[Compound 35]", "values": [
      {"measurement": "IC50", "setting": "[1]; Table 3, benzothiazolones", "result": 8.5, "unit": "µM"},
      {"measurement": "Capture % Max. Inhib.", "setting": "[2]", "result": 12, "unit": "%"}
    ]},
    {"smiles": "O=c1c2ccc(Br)cc2sn1-c1ccc(Cl)cc1", "note": "[Compound 36]", "values": [
      {"measurement": "Capture % Max. Inhib.", "setting": "[2]", "result": 10, "unit": "%"}
    ]},
    {"smiles": "N#Cc1ccc2c(=O)n(-c3ccc(Cl)cc3)sc2c1", "note": "[Compound 37]", "values": [
      {"measurement": "Capture % Max. Inhib.", "setting": "[2]", "result": 16, "unit": "%"}
    ]},
    {"smiles": "Cc1ccc2oc(=O)n(Cc3cccc(O)c3)c2c1", "note": "[Compound 098]", "values": [
      {"measurement": "inhibition of growth of an ovarian cancer cell line, in words", "setting": "ovarian cancer cell line", "result": "significant inhibitory action"},
      {"measurement": "inhibition of MIF-dependent signal transduction (reduction in ERK1/2 phosphorylation), in words", "setting": "[3]", "result": "significant inhibitory action"}
    ]},
    {"smiles": "COC(=O)CC1CC(c2ccc(O)cc2)=NO1", "note": "(centres unmarked) [ISO-1, reference compound]", "values": [
      {"measurement": "activity in the HPP tautomerase assay, in words", "setting": "[1]", "result": "inactive"},
      {"measurement": "activity in the capture assay (MIF-CD74 binding), in words", "setting": "[2]", "result": "inactive"}
    ]}
  ]
}
